Experiments:
ALK+ NSCLC = assay: Exposure-PFS analysis (Kaplan-Meier, Cox PH models), ALTA-1L; format: in vivo, human
Protocol: Model‐based estimates of CL/F and actual dosing history were used to derive exposure metrics of interest. Several exposure metrics were considered, including both static and dynamic area under the concentration‐time curve (AUC) estimates (Methods S1).
First, the relationship between PFS and two static exposure metrics, time‐averaged AUC between the last two disease assessment scans preceding progression or censoring and time‐averaged AUC until progression, was evaluated. These exposure‐PFS relationships were characterized by a proportional hazard (PH) model relating exposure to the hazard of PFS. The hazard function was expressed as: (1) λt=λ0te^β^TXi where λ 0 (t) is the baseline hazard function and Xi is a vector of predictor variables for an individual patient. The parameter vector β was estimated by maximum partial likelihood and captures the effect of exposure and/or additional covariates on the hazard of disease progression.
Next, the relationship between PFS and two dynamic exposure metrics, daily time‐varying AUC between the last two disease assessment scans preceding progression or censoring and daily time‐varying AUC until progression, was evaluated. These analyses used a time‐dependent covariate Cox PH model relating time‐dependent exposure to PFS. The hazard function was expressed as: (2) λt=λ0te^β1×AUCDt+β^TXi where model parameters were as above in Equation 1, except that exposure (AUCDt ) was a time‐dependent predictor rather than a constant for each patient.
For each static exposure‐PFS analysis, Kaplan‐Meier (KM) plots of PFS probability over time were generated and stratified by brigatinib exposure quartiles. Crizotinib PFS curves were overlaid for comparison.
Dynamic daily time-averaged AUC between successive disease assessment scans preceding the event or censoring for PFS, obtained as the average of daily AUCs within each scan interval.
Time averaged AUC until PFS= Cumulative dose to progressionOral brigatinib clearance/ (days to progression)

[1] = Exposure-safety analysis and AE incidence, ALTA-1L; format: in vivo, human
Text: […] AEs of interest selected for analysis included eight grade two or higher AEs (increased alanine aminotransferase [ALT], AST, or amylase; hyperglycemia; hypertension; bradycardia; rash; and pulmonary events [pneumonitis or ILD]), five grade three or higher AEs (increased CPK, AST, ALT, amylase, and lipase), and a composite grade three or higher AE end point that included grade three or higher CPK, AST, ALT, amylase, or lipase elevations; hyperglycemia; hypertension; bradycardia; rash; and pulmonary events.
AEs were included in the analysis if they occurred any time between the first day of brigatinib dosing and 30 days after the last dose. AEs were defined according to the National Cancer Institute Common Toxicity Criteria for Adverse Events version 4.03. The relationship between time‐averaged exposure and AE probability was examined using the same logistic regression models described for the exposure–clinical response analyses. Probability of an AE was plotted against exposure, with observed probabilities calculated by exposure quartiles.
The relationship between brigatinib exposure and time to first brigatinib dose reduction was also explored. A KM plot of time to first brigatinib dose reduction was generated, with survival curves binned by brigatinib exposure quartiles, where exposure was defined as the time‐averaged AUC to the first occurrence of dose reduction.

[2] = tested on: advanced ALK inhibitor-naive ALK+ NSCLC; settings: cited from earlier work
[3] = Population PK model (Bayesian re-estimation), brigatinib arm of ALTA-1L (first-line); format: in vivo, human; settings: geometric mean (5th and 95th percentiles)
Protocol: The population PK and exposure‐response analyses evaluated data from the brigatinib arm (180 mg q.d. with a 7‐day lead‐in at 90 mg q.d.) of the ALTA‐1L trial (second interim analysis, data cutoff date: June 28, 2019).[8] […] Blood samples for measurement of brigatinib plasma concentrations were obtained predose on day 1 of cycle one (28 day/cycle); predose and 1, 4, and 6 to 8 h postdose on day 1 of cycle two; and predose and any time between 1 and 8 h postdose on day 1 of cycles three, four, and five. Plasma samples were analyzed for brigatinib concentrations using a validated liquid chromatography/tandem mass spectrometry assay with a lower limit of quantification of 5 ng/mL. Efficacy assessments were based on computed tomography or magnetic resonance imaging performed at screening, every 8 weeks through cycle 14, and then every 12 weeks through treatment discontinuation.[8] Safety data were collected as they were reported.
(§1) The previously developed population PK model[11] was used for population PK analyses of ALTA‐1L data. The previous analysis provided a robust and comprehensive characterization of brigatinib PK and sources of variability. Importantly, the previous analysis included 202 patients with ALK+ NSCLC that progressed on other ALK TKIs, representing a similar patient population to patients receiving first‐line brigatinib in ALTA‐1L. These considerations supported a Bayesian re‐estimation approach for deriving individual brigatinib PK parameters in ALTA‐1L using the previously reported model, and the model was applied without modification. In brief, the population PK model described brigatinib PK using a three‐compartment model with linear distribution and elimination kinetics and first‐order absorption preceded by a set of transit compartments.[11] The model included albumin concentration as a covariate on apparent oral clearance (CL/F). Bayesian re‐estimation was performed by setting initial model conditions to values of fixed effects and random effect variances previously estimated,[11] allowing for estimation of individual PK parameters based on the PK observations in the ALTA‐1L dataset.
(§2) Diagnostic plots were created to compare brigatinib PK in patients in ALTA‐1L (first‐line setting) and ALTA (second‐line setting). […] In exploratory analyses, relationships between covariates of interest and model‐based exposure estimates were evaluated using linear regression models with each covariate as a predictor.

[4] = tested on: advanced ALK+ NSCLC that progressed on crizotinib; settings: ALTA, cited from earlier work
[5] = design: method as in earlier work; settings: after administration of 180 mg q.d.; cited from earlier work
[6] = Linear regression of covariates versus post hoc steady-state AUC, ALTA-1L; format: in vivo, human; settings: for Percentage change in steady-state AUC relative to value at median covariate [95% CI] / Percentage change in median AUC (with 95% CI) relative to the most common reference category: 180 mg once daily
Protocol: as §2

[7] = Population PK model post hoc estimates, ALTA (second-line); format: in vivo, human; settings: geometric mean (5th and 95th percentiles); ALTA n = 201
Text: as §1, §2

[8] = 180 mg q.d. with 7-day lead-in at 90 mg q.d.
[9] = patients with measurable baseline brain metastases

Compound: COc1cc(N2CCC(N3CCN(C)CC3)CC2)ccc1Nc1ncc(Cl)c(Nc2ccccc2P(C)(C)=O)n1 [brigatinib]
- Cox PH ratio for PFS versus exposure (ALK+ NSCLC; dynamic metric: daily time-averaged AUC between successive disease assessments preceding PFS event or censoring, p = 0.08): 1.02
- Cox PH ratio for PFS versus exposure (ALK+ NSCLC; dynamic metric: daily time-varying AUC preceding progression or censoring, p = 0.69): 1.01 [0.98–1.03]
- HR [95% CI] of disease progression or death per one-unit increase in exposure (Cox PH model) (ALK+ NSCLC; static metric: time-averaged AUC between the last two disease assessments, p = 0.01): 1.03 [1.01–1.05]
- Incidence of ALT increase, Grade ≥2 ([1]; n = 123): 18 (14.6) n (%)
- Incidence of ALT increase, Grade ≥3 ([1]; n = 123): 6 (4.9) n (%)
- Incidence of AST increase, Grade ≥2 ([1]; n = 123): 10 (8.1) n (%)
- Incidence of AST increase, Grade ≥3 ([1]; n = 123): 5 (4.1) n (%)
- Incidence of Amylase increase, Grade ≥2 ([1]; n = 123): 24 (19.5) n (%)
- Incidence of Amylase increase, Grade ≥3 ([1]; n = 123): 10 (8.1) n (%)
- Incidence of Bradycardia, Grade ≥2 ([1]; n = 123): 2 (1.6) n (%)
- Incidence of CPK increase, Grade ≥3 ([1]; n = 123): 32 (26.0) n (%)
- Incidence of Hyperglycemia, Grade ≥2 ([1]; n = 123): 2 (1.6) n (%)
- Incidence of Hypertension, Grade ≥2 ([1]; n = 123): 38 (30.9) n (%)
- Incidence of Lipase increase, Grade ≥3 ([1]; n = 123): 22 (17.9) n (%)
- Incidence of Pulmonary AEs (pneumonitis and interstitial lung disease), Grade ≥2 ([1]; n = 123): 2 (1.6) n (%)
- Incidence of Rash, Grade ≥2 ([1]; n = 123): 15 (12.2) n (%)
- Incidence of Any AE, Grade ≥3 ([1]; n = 123, composite of CPK, AST, ALT, amylase, lipase, hyperglycemia, hypertension, bradycardia, rash, pulmonary events): 64 (52.0) n (%)
- Odds ratio, grade ≥3 lipase increase per 1 µg·h/mL/day increase in exposure ([1]; time-averaged AUC across days 8 to 14 of cycle one, 95% CI: 1.00–1.10, p = 0.039): 1.05
- Odds ratio, grade ≥2 amylase increase per 1 µg·h/mL/day increase in exposure ([1]; time-averaged AUC across days 8 to 14 of cycle one, 95% CI: 1.01–1.11, p = 0.016): 1.06
- Estimated odds ratio, grade ≥3 lipase increase versus exposure ([1]; time-averaged AUC to first occurrence of an event, 95% CI: 0.99–1.07, p = 0.146): 1.03
- Estimated odds ratio, grade ≥2 amylase increase versus exposure ([1]; time-averaged AUC to first occurrence of an event, p = 0.094): 1.04 [0.99–1.09]
- Effect of exposure on time to first brigatinib dose reduction (KM plots by exposure quartiles) ([1]; time-averaged AUC to the first occurrence of dose reduction): did not show a discernible effect
- Hazard ratio versus crizotinib (superiority, PFS) ([2]; ALTA-1L first interim analysis, 95% CI: 0.33–0.74, p < 0.001): 0.49
- Early onset pulmonary events, patients ([2]; ALTA-1L): 3%
- Median PFS ([2]; ALTA-1L): ≥ 2 years
- Median time to first brigatinib dose reduction ([2]; ALTA-1L): ~ 2 years
- 2-year intracranial PFS rate ([2]; ALTA-1L, patients with any baseline brain metastases): 48%
- iORR ([2]; second ALTA-1L interim analysis, patients with measurable baseline brain metastases): 78%
- Albumin covariate effect on CL/F ([3]; ALTA-1L n = 123): 1.03 (0.874, 1.13)
- CL/F ([3]; ALTA-1L n = 123): 8.45 (4.04, 17.8) L/h
- Mean transit time ([3]; ALTA-1L n = 123): 1.01 (0.538, 2.36) h
- Q2/F ([3]; ALTA-1L n = 123): 12.6 (12.6, 12.6) L/h
- Q3/F ([3]; ALTA-1L n = 123): 2.67 (2.67, 2.67) L/h
- V1/F ([3]; ALTA-1L n = 123): 160 (69.0, 302) L
- V2/F ([3]; ALTA-1L n = 123): 118 (46.5, 283) L
- V3/F ([3]; ALTA-1L n = 123): 78.5 (78.5, 78.5) L
- AUC ([3]; human, plasma, oral, maintenance dose 180 mg q.d., ALTA-1L, read-out: Daily steady-state post hoc AUC): 21300 ng·h/mL
- IRC-assessed confirmed objective response rate (ORR) [4, 8]: 56%
- Median IRC-assessed progression-free survival (PFS) [4, 8]: 16.7 months
- IRC-assessed intracranial ORR (iORR) [4, 9]: 67%
- Median duration of (intracranial) response [4, 9]: 16.6 months
- Mean plasma elimination half-life [5]: 25 h
- Percentage change in steady-state AUC relative to value at median covariate [95% CI] ([6]; ALT, 5th percentile): 0 [-6; 4] %
- Percentage change in steady-state AUC relative to value at median covariate [95% CI] ([6]; ALT, 95th percentile): 2 [-21; 28] %
- Percentage change in steady-state AUC relative to value at median covariate [95% CI] ([6]; AST, 5th percentile): -4 [-9; 4] %
- Percentage change in steady-state AUC relative to value at median covariate [95% CI] ([6]; AST, 95th percentile): 11 [-11; 38] %
- Percentage change in steady-state AUC relative to value at median covariate [95% CI] ([6]; age, 5th percentile): -26 [-39; -15] %
- Percentage change in steady-state AUC relative to value at median covariate [95% CI] ([6]; age, 95th percentile): 27 [15; 43] %
- Percentage change in steady-state AUC relative to value at median covariate [95% CI] ([6]; albumin at baseline, 5th percentile): 3 [1; 14] %
- Percentage change in steady-state AUC relative to value at median covariate [95% CI] ([6]; albumin at baseline, 95th percentile): -2 [-5; 0] %
- Percentage change in steady-state AUC relative to value at median covariate [95% CI] ([6]; body weight, 5th percentile): 12 [3; 21] %
- Percentage change in steady-state AUC relative to value at median covariate [95% CI] ([6]; body weight, 95th percentile): -18 [-31; -5] %
- Percentage change in steady-state AUC relative to value at median covariate [95% CI] ([6]; eGFR, 5th percentile): 2 [-9; 14] %
- Percentage change in steady-state AUC relative to value at median covariate [95% CI] ([6]; eGFR, 95th percentile): -3 [-22; 15] %
- Percentage change in median AUC (with 95% CI) relative to the most common reference category ([6]; race: Asian (n = 53) vs White (n = 68)): -6 [-21; 12] %
- Percentage change in median AUC (with 95% CI) relative to the most common reference category ([6]; sex: Female (n = 60) vs Male (n = 63)): 15 [-3; 37] %
- Percentage change in steady-state AUC relative to value at median covariate [95% CI] ([6]; total bilirubin, 5th percentile): -11 [-24; 8] %
- Percentage change in steady-state AUC relative to value at median covariate [95% CI] ([6]; total bilirubin, 95th percentile): 17 [-12; 41] %
- Magnitude of relative difference in predicted AUC for each stratum compared with the most common stratum ([6]; categorical covariates (sex and race), ALTA-1L): less than 20%
- Magnitude of relative difference in predicted AUC at 5th and 95th percentiles relative to median of covariate ([6]; continuous covariates (age, eGFR, body weight, total bilirubin, AST, ALT), ALTA-1L): below 30%
- Variability in post hoc AUC, 5th and 95th percentiles relative to predicted AUC for a typical patient ([6]; overall ALTA-1L population, typical patient with albumin 41 g/L): −60% to +263
- Albumin covariate effect on CL/F [7]: 0.939 (0.758, 1.09)
- CL/F [7]: 9.90 (4.06, 23.0) L/h
- Mean transit time [7]: 0.998 (0.584, 1.92) h
- Q2/F [7]: 12.6 (12.6, 12.6) L/h
- Q3/F [7]: 2.67 (2.67, 2.67) L/h
- V1/F [7]: 199 (86.0, 468) L
- V2/F [7]: 124 (78.3, 259) L
- V3/F [7]: 78.5 (78.5, 78.5) L

Source: article PMC9099121, “Population pharmacokinetic and exposure‐response analyses from ALTA‐1L: Model‐based analyses supporting the brigatinib dose in ALK‐positive NSCLC” (Clinical and Translational Science, 2022)
